From patent US9296691B2, “Inhibitors of p75 receptor and their uses” (Horacio Uri Saragovi, priority 2010, dated 2016)

Columns and labels:
[1] = system: NGI (NFL-GCL-IPL) retinal layers; test: ON axotomy model, retinal NGI thickness by FD-OCT; format: in vivo; settings: rat ON axotomy, 3 μg intravitreal immediately after axotomy, days 11 and 14, versus untreated axotomy
Protocol: Antagonists of p75NTR prevented loss of retinal structure after ON axotomy. The relative in vivo efficacy for I-B and LM-24 was tested using the ON axotomy model. A quantitative non-invasive structural endpoint, FD-OCT, was performed in the same animal over time to measure the integrity of the neuronal layers. We quantified the axons and fibers of the RGCs that contribute to the thickness of the Nerve Fiber Layer (NFL), the Ganglion Cell Layer (GCL), and the Inner Plexiform Layer (IPL), herein termed NGI. Maintenance of NGI structure correlates with RGC health (Bai et al., 2010a).
Wistar rats (female, 250-300 g; Charles River) were kept in a 12 hours dark-light cycle with food and water ad libitum. All animal manipulations were performed between 9 AM and 12 AM. […]
FD-OCT is a non-invasive method that allows time-kinetic studies in the same animal. […] In each B-scan the thickness of the NFL-GCL-IPL (NGI) was measured at four adjacent points at a distance 1.5 mm from the ON head. […]
For studies in the glaucoma animal model the injections were performed at days 14 and 21 after cauterization. […] Thus, in this paradigm there is pre-existing damage for 14 days before treatment (measured at ˜8% RGC death (Shi et al., 2007; Shi et al., 2008)); and the treatments require long-lived efficacy in the constant presence of retinal stress due to high IOP. […]

anti-NGF mAb NGF30 = test: Competitive ELISA, anti-NGF mAb NGF30 binding to immobilized NGF (selectivity control)
Protocol: The effect of compounds I-B and LM-24 on the binding between NGF and p75 was tested in competitive ELISA assays, where the antagonists prevent soluble p75 from binding to immobilized NGF. The selectivity of antagonism was evaluated by lack of effect upon NGF-TrkA or lack of effect between NGF and anti-NGF monoclonal antibody (mAb) NGF30 interactions (FIG. 1A).
Competitive ELISAs were performed as described (Saragovi et al., 1998). The procedure immobilized 50 ng/well NGF, or pro-NGF (Alomone Labs, Israel) onto polystyrene 96-well microtest plates, with washing and blocking with binding buffer (BB; phosphate buffered saline containing 0.5% bovine serum albumin). The following primary reagents in BB were added: recombinant chimeric p75-Fc or recombinant chimeric TrkA-Fc (R&D), or anti-NGF mAb NGF30 (Saragovi et al., 1998); each at 50 nM. The competitors I-B and the other test compounds (or control LM-24) were added at the indicated concentrations, and the plates were incubated for 45 minutes. After washing 3× in BB, HRP-conjugated secondary reagents (Sigma) were added for 30 min (goat anti-human Fc for p75-Fc and for TrkA-Fc; and goat anti-rat Ab for NGF30 mAb), and then wells were washed 3× in BB and 1× in PBS. Peroxidase activity was determined colorimetrically using the substrate TMB One Solution (Promega). The reaction was stopped with 0.5 N H2SO4 and the plates were read at 450 nm (Benchmark Plus, Bio-Rad). Assays were repeated n>4 times, with replicates of 4 wells each assay. […] Wells with no NGF immobilized but with all other reagents added were treated as background (<15% of maximal signals) and standardized to 0% binding.

## CC(C)NC(=O)N(C(=O)Cn1cnc2c1c(=O)n(C)c(=O)n2C)C(C)C [I-B, 1,3-Diisopropyl-1-[2-(1,3-dimethyl-2,6-dioxo-1,2,3,6-tetrahydro-purin-7-yl)-acetyl]-urea]
[1]
  preservation of NGI thickness (FD-OCT): significant preservation of the NGI thickness
anti-NGF mAb NGF30; binding to immobilized NGF, no cpd = 100%, mAb NGF30 50 nM, as described for FIG. 1A
  NGF30 binding AVERAGE: 88%
anti-NGF mAb NGF30; competitive ELISA, FIG. 1A, compound at 30 μM
  effect on mAb NGF30 binding to NGF: did not interfere
